# Measurements published in ChEMBL document CHEMBL1201862, “PubChem BioAssay data set” (2004).
#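 Growth conditions: 96-well plates. Treatment: test compound, 48 hours, 5 concentrations. Analysis: linear interpolation between bracketing concentrations; unreached endpoints set to highest concentration. At the GI50, growth is halved.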 Activity calls are given as the source filed them. Cut-off read from the data, not from the text of the source: active = GI50 up to about 1.1 µM and inactive = higher.
# Experiments:
# Assay in all cases: NCI anticancer screen, dose series, 48 h
# [1] = test system: MOLT-4
# [2] = test system: HCT-15
# [3] = test system: U-251
# [4] = test system: SN12C
# [5] = test system: K562
# [6] = test system: DMS-114
# [7] = test system: HOP-92
# [8] = test system: M14
# [9] = test system: RPMI-8226
# [10] = test system: ACHN
# [11] = test system: LXFL 529
# [12] = test system: DMS-273
# [13] = test system: KM-20L2
# [14] = test system: COLO 205
# [15] = test system: NCI-H460
# [16] = test system: HOP-18
# [17] = test system: HL-60
# [18] = test system: SNB-78
# [19] = test system: SK-MEL-28
# [20] = test system: OVCAR-4
# [21] = test system: RXF 393
# [22] = test system: SK-OV-3
# [23] = test system: SNB-19
# [24] = test system: A498
# [25] = test system: M19-MEL
# [26] = test system: LOX IMVI
# [27] = test system: SF-539
# [28] = test system: XF498
# [29] = test system: CCRF-CEM
# [30] = test system: NCI-H23
# [31] = test system: IGROV-1
# [32] = test system: UACC-62
# [33] = test system: RXF 631
compound,measurement,setting,value
O=C(O)CCC1CCc2cccc(O)c2C1=O (stereo not drawn),GI50,[1],> 100 µM (inactive)
same,GI50,[2],> 100 µM
same,GI50,[3],> 100 µM (inactive)
same,GI50,[4],> 100 µM (inactive)
same,GI50,[5],> 100 µM (inactive)
same,GI50,[6],> 100 µM (inactive)
same,GI50,[7],> 100 µM (inactive)
same,GI50,[8],> 100 µM (inactive)
same,GI50,[9],> 100 µM (inactive)
same,GI50,[10],> 100 µM (inactive)
same,GI50,[11],> 100 µM (inactive)
same,GI50,[12],> 100 µM (inactive)
same,GI50,[13],> 100 µM (inactive)
same,GI50,[14],> 100 µM (inactive)
same,GI50,[15],> 100 µM (inactive)
same,GI50,[16],> 100 µM (inactive)
same,GI50,[17],> 100 µM (inactive)
same,GI50,[18],> 100 µM (inactive)
same,GI50,[19],> 100 µM (inactive)
same,GI50,[20],> 100 µM (inactive)
same,GI50,[21],> 100 µM (inactive)
same,GI50,[22],> 100 µM (inactive)
same,GI50,[23],> 100 µM (inactive)
same,GI50,[24],> 100 µM (inactive)
same,GI50,[25],> 100 µM (inactive)
same,GI50,[26],> 100 µM (inactive)
same,GI50,[27],> 100 µM (inactive)
same,GI50,[28],> 100 µM (inactive)
same,GI50,[29],> 100 µM (inactive)
same,GI50,[30],> 100 µM (inactive)
same,GI50,[31],> 100 µM (inactive)
same,GI50,[32],> 100 µM (inactive)
same,GI50,[33],> 100 µM (inactive)
